Activity calls are given as the source filed them. The calls are words filed in the database; no cut-off is given here.
Tests used:
HCT-116 [1] = test: Upregulation of c-Myc protein expression in human HCT-116 cells with NDRG1 knockdown at 0.3 uM incubated for 24 hrs by immunoblotting assay; assay type: functional, cell-based
SW480 [2] = test: Cell cycle arrest in human SW480 cells assessed as accumulation at S phase at 0.7 uM incubated for 24 hrs by RNaseA/propidium iodide staining based flow cytometry (reference value: 16.7 %); assay type: functional
HCT-116 [3] = test: Induction of apoptosis in human HCT-116 cells assessed as late apoptotic cells at 0.3 uM incubated for 48 hrs by Annexin V-FITC/PI staining based flow cytometry analysis (Rvb= 3.18%); assay type: functional
SW480 [4] = test: Induction of apoptosis in human SW480 cells assessed as viable cells at 1.4 uM incubated for 48 hrs by Annexin V-FITC/PI staining based flow cytometry analysis (Rvb= 92.6%); assay type: functional; conditions: read-out: Activity
HCT-116 [5] = test: Antitumor activity against human HCT-116 cells xenografted Balb/c mouse assessed as decrease in Ki67 protein expression at 3 mg/kg,ip administrated for 18 days by 3 times per week by immunoblotting assay; assay type: functional, organism-based; conditions: time 18.0 day
HCT-116 [6] = test: Cell cycle arrest in human HCT-116 cells assessed as accumulation at S phase at 0.075 uM incubated for 24 hrs by RNaseA/propidium iodide staining based flow cytometry (reference value: 19.94 %); assay type: functional
HCT-116 [7] = test: Antimigratory activity against highly liver metastatic human HCT-116 cells assessed as downregulation of N-cadherin gene expression at 0.075 to 0.3 uM incubated for 24 hrs by RT-PCR method; assay type: functional, cell-based; conditions: dose 0.075-0.3 µM
SW480 [8] = test: Anti-migratory activity against human SW480 cells assessed as downregulation of N-cadherin gene expression at 0.35 to 1.4 uM incubated for 24 hrs by RT-PCR assay; assay type: functional, cell-based; conditions: dose 0.35-1.4 µM
SW480 [9] = test: Induction of apoptosis in human SW480 cells assessed as late apoptotic cells at 1.4 uM incubated for 48 hrs by Annexin V-FITC/PI staining based flow cytometry analysis (Rvb= 5.26%); assay type: functional
HCT-116 [10] = test: Antitumor activity against human HCT-116 cells xenografted Balb/c mouse assessed as reduction in tumor growth at 3 mg/kg,ip administrated for 18 days by 3 times per week; assay type: functional; set-up: scale not given: the % may be the effect or the level left; conditions: time 18 day
HCT-116 [11] = test: Cell cycle arrest in human HCT-116 cells assessed as downregulation of CDK6 protein expression at 0.075 to 0.3 uM incubated for 24 hrs by immunoblotting assay; assay type: functional, cell-based; conditions: dose 0.075-0.3 µM
SW480 [12] = test: Cell cycle arrest in human SW480 cells assessed as accumulation at G0/G1 phase at 0.7 uM incubated for 24 hrs by RNaseA/propidium iodide staining based flow cytometry (reference value: 54.49 %); assay type: functional
SW480 [13] = test: Induction of apoptosis in human SW480 cells assessed as necrotic cells at 1.4 uM incubated for 48 hrs by Annexin V-FITC/PI staining based flow cytometry analysis (Rvb= 0.07%); assay type: functional
HCT-116 [14] = test: Downregulation of cleaved PARP protein expression in human HCT-116 cells with NDRG1 knockdown at 0.3 uM incubated for 24 hrs by immunoblotting assay; assay type: functional, cell-based
SW480 [15] = test: Anti-migratory activity against human SW480 cells assessed as downregulation of N-cadherin protein expression at 0.35 to 1.4 uM incubated for 24 hrs by immunoblotting assay; assay type: functional, cell-based; conditions: dose 0.35-1.4 µM
HCT-116 [16] = test: Induction of apoptosis in human HCT-116 cells assessed as necrotic cells at 0.075 uM incubated for 48 hrs by Annexin V-FITC/PI staining based flow cytometry analysis (Rvb= 0.13%); assay type: functional
SW480 [17] = test: Cell cycle arrest in human SW480 cells assessed as accumulation at Sub-G1 phase at 0.7 uM incubated for 24 hrs by RNaseA/propidium iodide staining based flow cytometry (reference value: 3.2 %); assay type: functional
SW480 [18] = test: Cell cycle arrest in human SW480 cells assessed as accumulation at G2/M phase at 0.35 uM incubated for 24 hrs by RNaseA/propidium iodide staining based flow cytometry (reference value: 24.74 %); assay type: functional
HCT-116 [19] = test: Downregulation of cleaved caspase 8 protein expression in human HCT-116 cells with NDRG1 knockdown at 0.3 uM incubated for 24 hrs by immunoblotting assay; assay type: functional, cell-based
HCT-116 [20] = test: Antimigratory activity against highly liver metastatic human HCT-116 cells assessed as upregulation of NDRG1 protein expression at 0.075 to 0.3 uM incubated for 24 hrs by immunoblotting assay; assay type: functional, cell-based; conditions: dose 0.075-0.3 µM
HCT-116 [21] = test: Cell cycle arrest in human HCT-116 cells assessed as accumulation at G0/G1 phase at 0.075 uM incubated for 24 hrs by RNaseA/propidium iodide staining based flow cytometry (reference value: 48.44 %); assay type: functional
HCT-116 [22] = test: Upregulation of cyclin-D1 protein expression in human HCT-116 cells with NDRG1 knockdown at 0.3 uM incubated for 24 hrs by immunoblotting assay; assay type: functional, cell-based
SW480 [23] = test: Cell cycle arrest in human SW480 cells assessed as accumulation at Sub-G1 phase at 1.4 uM incubated for 24 hrs by RNaseA/propidium iodide staining based flow cytometry (reference value: 3.2 %); assay type: functional
HCT-116 [24] = test: Cell cycle arrest in human HCT-116 cells assessed as accumulation at S phase at 0.3 uM incubated for 24 hrs by RNaseA/propidium iodide staining based flow cytometry (reference value: 19.94 %); assay type: functional
HCT-116 [25] = test: Antitumor activity against human HCT-116 cells assessed as upregulation of NDRG1 gene expression at 0.075 to 0.3 uM incubated for 24 hrs by RT-PCR method; assay type: functional, cell-based; conditions: dose 0.075-0.3 µM, DDE = dose-dependent effect
HCT-116 [26] = test: Anti-migratory activity against human HCT-116 cells assessed as upregulation of E-cadherin protein expression at 0.075 to 0.3 uM incubated for 24 hrs by immunoblotting assay; assay type: functional, cell-based; conditions: dose 0.075-0.3 µM
HCT-116 [27] = test: Cell cycle arrest in human HCT-116 cells assessed as downregulation of CDK4 protein expression at 0.075 to 0.3 uM incubated for 24 hrs by immunoblotting assay; assay type: functional, cell-based; conditions: dose 0.075-0.3 µM
HCT-116 [28] = test: Cell cycle arrest in human HCT-116 cells assessed as accumulation at Sub-G1 phase at 0.075 uM incubated for 24 hrs by RNaseA/propidium iodide staining based flow cytometry (reference value: 3.66 %); assay type: functional
SW480 [29] = test: Antitumor activity against human SW480 cells assessed as upregulation of NDRG1 protein expression at 0.35 to 1.4 uM incubated for 24 hrs by immunoblotting assay; assay type: functional, cell-based; conditions: dose 0.35-1.4 µM, DDE = dose-dependent effect
HCT-116 [30] = test: Induction of apoptosis in human HCT-116 cells assessed as viable cells at 0.075 uM incubated for 48 hrs by Annexin V-FITC/PI staining based flow cytometry analysis (Rvb= 94.18%); assay type: functional; conditions: read-out: Activity
HCT-116 [31] = test: Anti-migratory activity against human HCT-116 cells assessed as downregulation of N-cadherin gene expression at 0.075 to 0.3 uM incubated for 24 hrs by RT-PCR assay; assay type: functional, cell-based; conditions: dose 0.075-0.3 µM
HCT-116 [32] = test: Cell cycle arrest in human HCT-116 cells assessed as downregulation of cyclin-D1 protein expression at 0.075 to 0.3 uM incubated for 24 hrs by immunoblotting assay; assay type: functional, cell-based; conditions: dose 0.075-0.3 µM
HCT-116 [33] = test: Induction of apoptosis in human HCT-116 cells assessed as upregulation of cleaved PARP expression at 0.3 uM measured at 12 to 48 hrs by immunoblotting assay; assay type: functional, cell-based; conditions: time 12-48 hrs, TDE = time-dependent effect

For C[C@@H]1\C=C/C=C/C=C\C=C\C=C\C(=O)C2=C(O)C(=O)C[C@@]2(C)/C=C/C=C\C=C/C(=O)NC1, which Activity (HCT-116 [1]) is on record?
The Activity was “Active”.

And the Activity (SW480 [2])?
Its Activity is 15.28%.

What about the Activity (HCT-116 [3]) of the same molecule?
Its Activity is 14.94%.

And the viability at 1.4 µM (SW480 [4])?
The viability at 1.4 µM was 31%.

What about the Activity (HCT-116 [5]) of the same molecule?
Its Activity is “Active”.

And the Activity (HCT-116 [6])?
Its Activity is 18.4%.

What about the Activity (HCT-116 [7]) of the same molecule?
Its Activity is “Active”.

What about the Activity (SW480 [8]) of the same molecule?
Its Activity is “Active”.

What about the Activity (SW480 [9]) of the same molecule?
Its Activity is 44.51%.

And the Activity (HCT-116 [10])?
The Activity was 89%.

What about the Activity (HCT-116 [11]) of the same molecule?
The Activity was “Active”.

What about the Activity (SW480 [12]) of the same molecule?
Its Activity is 62.43%.

And the Activity (SW480 [13])?
Its Activity is 0.19%.

What about the Activity (HCT-116 [14]) of the same molecule?
Its Activity is “Active”.

And the Activity (SW480 [15])?
The Activity was “Active”.

And the Activity (HCT-116 [16])?
The Activity was 0.16%.

And the Activity (SW480 [17])?
Its Activity is 4.68%.

And the Activity (SW480 [18])?
Its Activity is 24.45%.

And the Activity (HCT-116 [19])?
The Activity was “Active”.

What about the Activity (HCT-116 [20]) of the same molecule?
Its Activity is “Active”.

What about the Activity (HCT-116 [21]) of the same molecule?
The Activity was 48.48%.

And the Activity (HCT-116 [22])?
Its Activity is “Active”.

What about the Activity (SW480 [23]) of the same molecule?
The Activity was 4.98%.

And the Activity (HCT-116 [24])?
The Activity was 10.04%.

And the Activity (HCT-116 [25])?
The Activity was “Dde”.

And the Activity (HCT-116 [26])?
The Activity was “Active”.

What about the Activity (HCT-116 [27]) of the same molecule?
The Activity was “Active”.

What about the Activity (HCT-116 [28]) of the same molecule?
The Activity was 4.46%.

What about the Activity (SW480 [29]) of the same molecule?
Its Activity is “Dde”.

And the viability at 0.075 µM (HCT-116 [30])?
Its viability at 0.075 µM is 84.8%.

And the Activity (HCT-116 [31])?
Its Activity is “Active”.

And the Activity (HCT-116 [32])?
Its Activity is “Active”.

What about the Activity (HCT-116 [33]) of the same molecule?
Its Activity is “Tde”.

From ChEMBL document CHEMBL5215006, “Antitumor Activity of Piceamycin by Upregulation of N-Myc Downstream-Regulated Gene 1 in Human Colorectal Cancer Cells” (J Nat Prod, 2022)
